Test system: TNF-alpha
Test: Inhibition of TNF Release From Whole Blood
Assay type: cell-based
Conditions: human whole blood diluted 1:2 in PBS, LPS 5 ng/ml, incubated at 37° C. overnight, TNF-alpha in supernatants by ELISA
Experimental: Human blood was freshly drawn from healthy donors and collected in vacutainers. Blood was diluted 1:2 in PBS (tissue culture, pyrogen free) in a sterile bottle and inverted to mix well. Aliquots of 0.5 ml of blood mixture were dispensed into cluster tubes in 96 well format.
Dilutions of the test compounds were prepared in RPMI by taking 100 mM DMSO stocks of the compounds and diluting 1:10 in RPMI medium in eppendorfs, to give a 10 mM stock. 1:5 serial dilutions were prepared from the stock solutions.
LPS was kept at a frozen stock (−20 degrees C.) at 1 mg/ml in PBS and then diluted to 1:10 with RPMI medium and finally diluted in the medium again 1:350. 50 μl of each test compound (first concentration was 100 uM) were added to the blood samples and then stimulated with 10 μl LPS (final concentration in the well is 5 ng/ml). The contents were gently mixed using an 8 well multi-channel pipette and incubated at 37° C. overnight. At the end of the incubation time, contents were gently mixed, then spun down at 1000×g for 5 mins at 20° C. The serum supernatants were transferred to a fresh plate without disturbing the RBCs and diluted 1:2 with the diluent RD6C.
TNF-alpha levels of supernatants were assayed using the R+D systems ELISA kit, using R+D systems protocol. Samples were read at 450 nm. The compounds shown in Table 1 were tested in the above assay. In this TNF-alpha assay, category “A” indicates an IC50 value of <500 nM. Category “B” indicates an IC50 value of 500-1000 nM. […] Category “D” indicates an IC50 value of >2000 nM.

| IC50 | Structure (SMILES) |
| --- | --- |
| < 0.5 µM | CC[C@@H](C(=O)NC(CC(=O)O)C(=O)CF)n1cnc2ccccc2c1=O (stereo partly shown) |
| > 2 µM | CC[C@@H](C(=O)NC(CC(=O)O)C(=O)CF)n1cnc2ccc(Oc3cccc(Cl)c3)cc2c1=O (stereo partly shown) |
| 1 to 2 µM | CC[C@@H](C(=O)NC(CC(=O)O)C(=O)CF)n1cnc2ccc(Sc3cccc(F)c3)cc2c1=O (stereo partly shown) |
| < 0.5 µM | CCC[C@@H](C(=O)NC(CC(=O)O)C(=O)CF)n1cnc2ccccc2c1=O (stereo partly shown) |
| 1 to 2 µM | C[C@@H](C(=O)NC(CC(=O)O)C(=O)CF)n1ccc2ccccc2c1=O (stereo partly shown) |
| 1 to 2 µM | CC[C@@H](C(=O)NC(CC(=O)O)C(=O)COc1c(F)c(F)cc(F)c1F)n1ccc2ccc(Cl)cc2c1=O (stereo partly shown) |
| > 2 µM | CC[C@@H](C(=O)NC(CC(=O)O)C(=O)CF)n1cnc2ccc(Oc3cccc(F)c3)cc2c1=O (stereo partly shown) |
| < 0.5 µM | CCC[C@@H](C(=O)NC(CC(=O)O)C(=O)CF)n1ccc2ccccc2c1=O (stereo partly shown) |
| > 2 µM | CC[C@@H](C(=O)NC(CC(=O)O)C(=O)CF)n1cnc2ccc(Oc3ccccc3Cl)cc2c1=O (stereo partly shown) |
| 0.5 to 1 µM | CC[C@@H](C(=O)N[C@@H](CC(=O)O)C(=O)COc1c(F)c(F)cc(F)c1F)n1ccc2ccccc2c1=O |
| 0.5 to 1 µM | CC[C@@H](C(=O)NC(CC(=O)O)C(=O)CF)n1cnc2ccc(Oc3ccccc3)cc2c1=O (stereo partly shown) |
| < 0.5 µM | CC[C@@H](C(=O)NC(CC(=O)O)C(=O)CF)n1ccc2ccc(Cl)cc2c1=O (stereo partly shown) |
| < 0.5 µM | CC[C@@H](C(=O)NC(CC(=O)O)C(=O)CF)n1cnc2ccc(Cl)cc2c1=O (stereo partly shown) |
| < 0.5 µM | C[C@@H](C(=O)NC(CC(=O)O)C(=O)CF)n1cnc2ccccc2c1=O (stereo partly shown) [drawing 34] |
| < 0.5 µM | CCCSc1ccc2ncn([C@@H](CC)C(=O)NC(CC(=O)O)C(=O)CF)c(=O)c2c1 (stereo partly shown) |
| 0.5 to 1 µM | CC[C@@H](C(=O)NC(CC(=O)O)C(=O)CF)n1ccc2ccc(C(F)(F)F)cc2c1=O (stereo partly shown) |
| < 0.5 µM | CC[C@@H](C(=O)NC(CC(=O)O)C(=O)CF)n1ccc2ccc(-c3ccccc3)cc2c1=O (stereo partly shown) |

The next lines start with the molecule.

| Structure (SMILES) | IC50 |
| --- | --- |
| O=C(O)CC(NC(=O)[C@@H]1CCCCN1C(=O)c1sc2ccccc2c1Cl)C(=O)CF (stereo partly shown) | < 0.5 µM |
| O=C(O)CC(NC(=O)[C@@H]1CCCCN1C(=O)OCc1cc(F)ccc1F)C(=O)CF (stereo partly shown) | < 0.5 µM |
| O=C(O)CC(NC(=O)[C@@H]1CCCc2cc3ccccc3c(=O)n21)C(=O)CF (stereo partly shown) | < 0.5 µM |
| Cc1c(C(=O)N[C@H](C(=O)NC(CC(=O)O)C(=O)CF)C(C)C)n(C)c2ccccc12 (stereo partly shown) | < 0.5 µM |
| CC(C)[C@@H](C(=O)NC(CC(=O)O)C(=O)CF)n1cnc2ccccc2c1=O (stereo partly shown) | 0.5 to 1 µM |
| C[C@@H](C(=O)NC(CC(=O)O)C(=O)CF)n1cnc2ccccc2c1=O (stereo partly shown) [drawing 66] | < 0.5 µM |
| O=C(O)CC(NC(=O)[C@@H]1CCCCN1C(=O)N1c2ccccc2Sc2ccc(Cl)cc21)C(=O)CF (stereo partly shown) | 0.5 to 1 µM |
| O=C(O)CC(NC(=O)[C@@H]1CCCCN1C(=O)N1c2ccccc2Sc2ccc(C(F)(F)F)cc21)C(=O)CF (stereo partly shown) | > 2 µM |
| O=C(O)CC(NC(=O)[C@@H]1CCCCN1C(=O)OCc1cc(Cl)ccc1F)C(=O)CF (stereo partly shown) [drawing 40] | < 0.5 µM |
| O=C(O)CC(NC(=O)[C@@H]1CCCCN1C(=O)c1ccc(-c2cccc(C(F)(F)F)c2)o1)C(=O)CF (stereo partly shown) [drawing 78] | > 2 µM |
| CC(C)[C@H](OC(=O)Nc1ccccc1)C(=O)NC(CC(=O)O)C(=O)CF (stereo partly shown) | < 0.5 µM |
| CC[C@@H](C(=O)NC(CC(=O)O)C(=O)COc1c(F)c(F)cc(F)c1F)n1cnc2ccccc2c1=O (stereo partly shown) | 1 to 2 µM |
| O=C(O)CC(NC(=O)[C@@H]1CCCCN1C(=O)OCc1cc(Cl)cc(Cl)c1)C(=O)CF (stereo partly shown) | 1 to 2 µM |
| CC(C)[C@H](OC(=O)n1c2ccccc2c2ccccc21)C(=O)NC(CC(=O)O)C(=O)CF (stereo partly shown) [drawing 36] | 1 to 2 µM |
| O=C(O)CC(NC(=O)[C@@H]1CCCCN1C(=O)O[C@H](c1ccccc1)C(F)(F)F)C(=O)CF (stereo partly shown) [drawing 37] | < 0.5 µM |
| Cc1ccccc1COC(=O)N1CCCC[C@H]1C(=O)NC(CC(=O)O)C(=O)CF (stereo partly shown) | < 0.5 µM |
| O=C(O)CC(NC(=O)[C@@H]1CCCCN1C(=O)O[C@H](c1ccccc1)C(F)(F)F)C(=O)CF (stereo partly shown) [drawing 65] | < 0.5 µM |
| CC[C@@H](C(=O)N[C@@H](CC(=O)O)C(=O)COc1c(F)c(F)cc(F)c1F)n1cnc2ccc(Cl)cc2c1=O | 1 to 2 µM |
| O=C(O)C[C@H](NC(=O)[C@@H]1CCCCN1C(=O)OCc1cc(Cl)ccc1F)C(=O)COc1c(F)c(F)cc(F)c1F | > 2 µM |
| CC(C)[C@H](OC(=O)n1c2ccccc2c2ccccc21)C(=O)NC(CC(=O)O)C(=O)CF (stereo partly shown) [drawing 76] | 1 to 2 µM |
| O=C(O)CC(NC(=O)[C@@H]1CCCc2nc3ccccc3c(=O)n21)C(=O)CF (stereo partly shown) | 0.5 to 1 µM |
| C[C@H](OC(=O)Nc1ccccc1)C(=O)NC(CC(=O)O)C(=O)CF (stereo partly shown) | 0.5 to 1 µM |
| Cc1cccc(COC(=O)N2CCCC[C@H]2C(=O)NC(CC(=O)O)C(=O)CF)c1 (stereo partly shown) | 0.5 to 1 µM |
| CC(C)[C@H](NC(=O)OCc1ccccc1)C(=O)NC(CC(=O)O)C(=O)CF (stereo partly shown) | < 0.5 µM |
| CC[C@@H](C(=O)N[C@@H](CC(=O)O)C(=O)COP(=O)(c1ccccc1)c1ccccc1)n1cnc2ccccc2c1=O | > 2 µM |
| O=C(O)CC(NC(=O)[C@@H]1CCCCN1C(=O)OCc1cccc(Cl)c1F)C(=O)CF (stereo partly shown) | < 0.5 µM |
| O=C(O)CC(NC(=O)[C@@H]1CCCCN1C(=O)OCc1cc(Cl)ccc1F)C(=O)CF (stereo partly shown) [drawing 70] | < 0.5 µM |
| O=C(O)CC(NC(=O)[C@@H]1CCCCN1C(=O)c1ccc(-c2cccc(C(F)(F)F)c2)o1)C(=O)CF (stereo partly shown) [drawing 39] | > 2 µM |
| CC[C@H](NC(=O)c1ncc[nH]1)C(=O)NC(CC(=O)O)C(=O)CF (stereo partly shown) | < 0.5 µM |

Reference: patent US7960398B2, “Regulation of TNF-alpha” (Vertex Pharmaceuticals Incorporated, priority 2002, dated 2011)
